# Assay results reported in ChEMBL document CHEMBL1201862, “PubChem BioAssay data set” (2004).
# Activity calls are given as the source filed them.
# Assays:
# Cytochrome P450 2C19 = Cytochrome P450 2C19 (Homo sapiens, UniProt P33261); assay: Cytochrome panel assay with activity outcomes. Panel member name: p450-cyp2c19 Compounds with AC50 equal or less than 10 uM are considered active; type: functional
# Cytochrome P450 2D6 = Cytochrome P450 2D6 (Homo sapiens, UniProt P10635);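 note: CYP2D6 member of a cytochrome P450 panel assay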
# Sequence of Cytochrome P450 2D6 (P10635 whole entry): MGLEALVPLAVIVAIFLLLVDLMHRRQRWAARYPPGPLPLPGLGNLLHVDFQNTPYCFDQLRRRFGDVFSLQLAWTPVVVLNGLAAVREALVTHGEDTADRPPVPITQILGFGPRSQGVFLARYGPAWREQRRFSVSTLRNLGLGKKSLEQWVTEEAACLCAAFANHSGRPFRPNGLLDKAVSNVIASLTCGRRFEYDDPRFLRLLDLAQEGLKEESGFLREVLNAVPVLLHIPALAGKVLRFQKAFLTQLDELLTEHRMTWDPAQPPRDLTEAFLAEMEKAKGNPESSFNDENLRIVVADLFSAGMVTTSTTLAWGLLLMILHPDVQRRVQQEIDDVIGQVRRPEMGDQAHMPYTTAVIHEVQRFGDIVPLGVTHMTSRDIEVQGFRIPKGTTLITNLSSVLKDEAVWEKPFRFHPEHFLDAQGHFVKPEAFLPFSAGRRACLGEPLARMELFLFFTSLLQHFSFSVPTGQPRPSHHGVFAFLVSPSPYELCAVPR
# [1] = biological target: DNA dC->dU-editing enzyme APOBEC-3A (Homo sapiens, UniProt P31941); assay: Dose Response confirmation of small molecule APOBEC3A DNA Deaminase Inhibitors via a fluorescence-based single-stranded DNA deaminase assay. [Related pubchem assays (depositor defined):AID493011, AID493024]; type: functional
# Sequence of DNA dC->dU-editing enzyme APOBEC-3A (P31941 whole entry): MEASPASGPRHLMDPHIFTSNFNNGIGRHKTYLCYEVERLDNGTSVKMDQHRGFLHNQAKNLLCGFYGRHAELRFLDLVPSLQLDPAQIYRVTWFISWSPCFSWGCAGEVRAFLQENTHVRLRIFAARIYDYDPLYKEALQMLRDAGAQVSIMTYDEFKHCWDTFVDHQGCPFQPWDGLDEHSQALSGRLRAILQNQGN
# [2] = biological target: T1, DNA dC->dU-editing enzyme APOBEC-3G (Homo sapiens, UniProt Q9HC16); type: functional
# T1 sequence (Q9HC16 whole entry, the tested form may be a part): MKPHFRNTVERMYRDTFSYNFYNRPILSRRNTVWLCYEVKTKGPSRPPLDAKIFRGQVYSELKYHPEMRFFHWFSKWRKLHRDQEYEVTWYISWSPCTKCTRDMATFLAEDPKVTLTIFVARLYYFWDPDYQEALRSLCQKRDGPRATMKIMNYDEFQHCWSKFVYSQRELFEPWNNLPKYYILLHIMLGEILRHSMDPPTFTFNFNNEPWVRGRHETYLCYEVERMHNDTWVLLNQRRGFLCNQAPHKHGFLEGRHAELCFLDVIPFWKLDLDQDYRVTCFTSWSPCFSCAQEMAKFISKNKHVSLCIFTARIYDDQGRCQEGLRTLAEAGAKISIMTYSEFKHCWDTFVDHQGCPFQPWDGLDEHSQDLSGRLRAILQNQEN
# [3] = biological target: T2, Carboxy-terminal domain RNA polymerase II polypeptide A small phosphatase 1 (Homo sapiens, UniProt Q9GZU7); assay: inhibitors of CTDSP1, concentration-response testing, biochemical assay, absorbance-based, actives from ultra-high-throughput screening (AID 540297); type: functional
# T2 sequence (Q9GZU7 whole entry): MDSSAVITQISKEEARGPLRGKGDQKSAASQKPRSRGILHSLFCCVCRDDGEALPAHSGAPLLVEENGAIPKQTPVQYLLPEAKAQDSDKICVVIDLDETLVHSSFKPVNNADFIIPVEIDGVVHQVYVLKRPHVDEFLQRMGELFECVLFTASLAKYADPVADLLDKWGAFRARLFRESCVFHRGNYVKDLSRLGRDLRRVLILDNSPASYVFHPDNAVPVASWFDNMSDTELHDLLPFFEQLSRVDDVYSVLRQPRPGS
# [4] = biological target: Voltage-gated inwardly rectifying potassium channel KCNH2 (Homo sapiens, UniProt Q12809); settings: Potency;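 note: confirmatory quantitative high-throughput screen measuring inhibition of hERG channel activity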
# Sequence of Voltage-gated inwardly rectifying potassium channel KCNH2 (Q12809 whole entry): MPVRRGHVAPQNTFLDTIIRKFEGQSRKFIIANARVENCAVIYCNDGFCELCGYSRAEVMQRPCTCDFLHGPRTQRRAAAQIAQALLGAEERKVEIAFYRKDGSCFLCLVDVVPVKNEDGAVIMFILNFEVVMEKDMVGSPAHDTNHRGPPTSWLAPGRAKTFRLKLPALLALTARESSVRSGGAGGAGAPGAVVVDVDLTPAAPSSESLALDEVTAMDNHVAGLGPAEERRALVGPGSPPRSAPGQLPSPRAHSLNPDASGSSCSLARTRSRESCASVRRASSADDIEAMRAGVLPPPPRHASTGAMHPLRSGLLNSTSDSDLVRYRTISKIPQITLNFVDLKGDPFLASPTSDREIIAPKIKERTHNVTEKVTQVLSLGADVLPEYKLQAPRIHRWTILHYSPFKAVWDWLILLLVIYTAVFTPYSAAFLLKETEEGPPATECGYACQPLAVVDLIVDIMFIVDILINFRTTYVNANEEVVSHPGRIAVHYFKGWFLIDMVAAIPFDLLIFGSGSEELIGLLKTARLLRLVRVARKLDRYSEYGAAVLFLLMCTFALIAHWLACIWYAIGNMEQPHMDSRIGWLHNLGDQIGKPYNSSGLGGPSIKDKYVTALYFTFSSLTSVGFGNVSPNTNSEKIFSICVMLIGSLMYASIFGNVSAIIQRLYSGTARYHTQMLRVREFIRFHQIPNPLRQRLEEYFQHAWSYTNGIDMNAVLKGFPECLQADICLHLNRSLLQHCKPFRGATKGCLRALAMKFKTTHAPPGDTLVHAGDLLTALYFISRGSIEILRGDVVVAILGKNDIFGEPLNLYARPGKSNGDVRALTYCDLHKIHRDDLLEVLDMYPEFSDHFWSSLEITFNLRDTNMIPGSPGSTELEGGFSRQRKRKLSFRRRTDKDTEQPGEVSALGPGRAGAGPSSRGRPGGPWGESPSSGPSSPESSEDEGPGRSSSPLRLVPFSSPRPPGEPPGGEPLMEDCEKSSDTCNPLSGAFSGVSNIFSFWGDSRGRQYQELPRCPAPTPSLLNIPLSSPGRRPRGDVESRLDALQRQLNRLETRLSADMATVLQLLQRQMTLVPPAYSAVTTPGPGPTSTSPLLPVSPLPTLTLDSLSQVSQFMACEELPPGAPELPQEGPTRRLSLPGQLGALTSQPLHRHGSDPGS
# [5] = biological target: Beta-2 adrenergic receptor (Homo sapiens, UniProt P07550); assay: beta2AR agonists driving receptor internalization, dose response, cell-based, FAP fluorogen, flow cytometry, cherry pick 1 (AID 588763); type: functional
# Sequence of Beta-2 adrenergic receptor (P07550 whole entry): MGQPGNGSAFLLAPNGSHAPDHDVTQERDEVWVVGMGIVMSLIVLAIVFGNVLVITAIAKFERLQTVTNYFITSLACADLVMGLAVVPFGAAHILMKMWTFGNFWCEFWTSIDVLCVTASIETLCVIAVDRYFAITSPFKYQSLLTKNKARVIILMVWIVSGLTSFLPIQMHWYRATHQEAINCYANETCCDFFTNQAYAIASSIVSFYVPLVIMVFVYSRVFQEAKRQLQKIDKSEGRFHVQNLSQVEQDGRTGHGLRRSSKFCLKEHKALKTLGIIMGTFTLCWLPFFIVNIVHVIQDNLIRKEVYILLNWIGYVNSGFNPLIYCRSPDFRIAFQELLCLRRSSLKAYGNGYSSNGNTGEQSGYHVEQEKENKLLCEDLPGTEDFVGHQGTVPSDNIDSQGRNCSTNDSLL
# [6] = biological target: Dual specificity protein kinase CLK1 (Homo sapiens, UniProt P49759); assay: CLK1 kinase inhibitors, off-target check, dose response, selectivity assay for Dyrk1A inhibitor project, biochemical, cherry-picked samples (AID 588811)
# Sequence of Dual specificity protein kinase CLK1 (P49759 whole entry): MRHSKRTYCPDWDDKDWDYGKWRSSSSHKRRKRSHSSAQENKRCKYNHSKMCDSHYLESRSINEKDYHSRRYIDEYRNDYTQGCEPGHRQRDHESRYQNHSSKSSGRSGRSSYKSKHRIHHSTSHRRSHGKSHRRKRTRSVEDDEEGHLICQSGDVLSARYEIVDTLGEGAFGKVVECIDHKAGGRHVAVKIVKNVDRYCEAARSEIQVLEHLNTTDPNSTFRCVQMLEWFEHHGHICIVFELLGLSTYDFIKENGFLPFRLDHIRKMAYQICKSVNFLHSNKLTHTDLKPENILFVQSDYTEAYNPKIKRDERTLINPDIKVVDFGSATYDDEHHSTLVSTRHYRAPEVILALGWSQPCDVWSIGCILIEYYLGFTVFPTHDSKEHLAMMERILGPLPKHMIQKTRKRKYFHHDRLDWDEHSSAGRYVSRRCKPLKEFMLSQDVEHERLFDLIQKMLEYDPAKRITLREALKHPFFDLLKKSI
# SUMO-activating enzyme [7] = biological target: T3, SUMO-activating enzyme (Homo sapiens, UniProt Q9UBT2); assay: inhibitors of in vitro SUMOylation cascade, primary screen, biochemical, HTRF, uHTS (AID 2006); type: protein-complex assay
# T3 sequence (Q9UBE0 whole entry): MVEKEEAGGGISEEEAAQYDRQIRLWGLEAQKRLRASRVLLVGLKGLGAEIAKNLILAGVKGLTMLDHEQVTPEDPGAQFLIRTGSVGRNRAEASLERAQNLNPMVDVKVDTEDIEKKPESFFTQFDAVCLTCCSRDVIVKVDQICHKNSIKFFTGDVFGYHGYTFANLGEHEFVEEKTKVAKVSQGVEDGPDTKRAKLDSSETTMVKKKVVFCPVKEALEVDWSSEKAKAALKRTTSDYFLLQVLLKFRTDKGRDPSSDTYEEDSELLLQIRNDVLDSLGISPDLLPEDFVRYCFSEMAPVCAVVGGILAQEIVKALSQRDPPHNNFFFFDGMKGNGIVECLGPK
# T3 sequence (Q9UBT2 whole entry): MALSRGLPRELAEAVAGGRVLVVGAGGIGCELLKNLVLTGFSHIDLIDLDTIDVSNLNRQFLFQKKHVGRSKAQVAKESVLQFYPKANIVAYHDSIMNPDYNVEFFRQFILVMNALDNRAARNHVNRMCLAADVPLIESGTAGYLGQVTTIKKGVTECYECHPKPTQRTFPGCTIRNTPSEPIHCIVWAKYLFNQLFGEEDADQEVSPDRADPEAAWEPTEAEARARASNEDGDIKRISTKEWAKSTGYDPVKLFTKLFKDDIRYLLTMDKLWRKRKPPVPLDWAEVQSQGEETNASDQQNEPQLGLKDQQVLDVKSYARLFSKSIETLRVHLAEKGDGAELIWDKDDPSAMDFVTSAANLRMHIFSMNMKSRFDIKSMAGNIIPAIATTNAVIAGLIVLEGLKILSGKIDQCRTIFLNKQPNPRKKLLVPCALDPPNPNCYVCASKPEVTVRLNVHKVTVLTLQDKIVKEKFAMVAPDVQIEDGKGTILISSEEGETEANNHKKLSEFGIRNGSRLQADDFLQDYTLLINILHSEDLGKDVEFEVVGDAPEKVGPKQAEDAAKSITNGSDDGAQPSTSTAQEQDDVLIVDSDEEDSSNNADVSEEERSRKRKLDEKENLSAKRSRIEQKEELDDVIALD
# [8] = biological target: T4, Replicative DNA helicase DnaB (Mycobacterium tuberculosis, UniProt P9WMR3); assay: DnaB intein splicing inhibitors, dose response, biochemical, cell-free fluorescence (AID 449749); type: functional
# T4 sequence (P9WMR3 whole entry): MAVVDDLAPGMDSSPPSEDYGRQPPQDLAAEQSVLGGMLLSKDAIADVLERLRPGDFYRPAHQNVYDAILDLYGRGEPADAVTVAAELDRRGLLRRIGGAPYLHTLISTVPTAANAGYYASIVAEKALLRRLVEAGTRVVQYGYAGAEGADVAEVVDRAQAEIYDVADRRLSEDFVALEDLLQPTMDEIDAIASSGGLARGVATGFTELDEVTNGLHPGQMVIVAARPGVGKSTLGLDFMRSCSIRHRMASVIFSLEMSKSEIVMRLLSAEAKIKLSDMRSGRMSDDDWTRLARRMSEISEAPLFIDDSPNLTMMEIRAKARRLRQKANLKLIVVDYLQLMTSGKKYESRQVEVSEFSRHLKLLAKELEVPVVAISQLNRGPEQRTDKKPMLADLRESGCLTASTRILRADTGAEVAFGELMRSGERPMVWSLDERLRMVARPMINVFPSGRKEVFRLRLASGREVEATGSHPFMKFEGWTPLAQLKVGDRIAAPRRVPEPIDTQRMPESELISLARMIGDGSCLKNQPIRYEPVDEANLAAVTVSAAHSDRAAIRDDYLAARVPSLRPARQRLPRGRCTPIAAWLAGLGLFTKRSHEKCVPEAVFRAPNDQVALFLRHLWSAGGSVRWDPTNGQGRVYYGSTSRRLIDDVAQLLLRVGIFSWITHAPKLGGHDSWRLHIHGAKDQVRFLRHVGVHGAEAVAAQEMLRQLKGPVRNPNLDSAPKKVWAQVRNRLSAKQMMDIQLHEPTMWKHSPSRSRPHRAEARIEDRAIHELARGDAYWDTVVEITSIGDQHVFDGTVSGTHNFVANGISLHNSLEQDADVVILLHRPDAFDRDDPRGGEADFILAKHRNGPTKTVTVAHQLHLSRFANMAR
# [9] = THP-1 cell cytotoxicity, dose response, cytotoxicity control for Vif-APOBEC3G degradation inhibitor project, THP-1 cells (AID 1117359); type: functional; settings: Human immunodeficiency virus 1, THP-1
# SUMO-activating enzyme [10] = biological target: T3, SUMO-activating enzyme; assay: SUMOylation inhibitor hit validation, confirmation, SUMOylation inhibitor project, biochemical, AlphaScreen (AID 2018); type: functional
# Protein RecA = biological target: T5, Protein RecA (Mycobacterium tuberculosis, UniProt P9WHJ3); assay: Fluorescence Cell-Free Homogeneous Dose Retest to Identify Inhibitors of RecA-Intein Splicing Activity. [Related pubchem assays (depositor defined):AID2097, AID2223, AID489010, AID492950]; type: functional
# T5 sequence (P9WHJ3 whole entry): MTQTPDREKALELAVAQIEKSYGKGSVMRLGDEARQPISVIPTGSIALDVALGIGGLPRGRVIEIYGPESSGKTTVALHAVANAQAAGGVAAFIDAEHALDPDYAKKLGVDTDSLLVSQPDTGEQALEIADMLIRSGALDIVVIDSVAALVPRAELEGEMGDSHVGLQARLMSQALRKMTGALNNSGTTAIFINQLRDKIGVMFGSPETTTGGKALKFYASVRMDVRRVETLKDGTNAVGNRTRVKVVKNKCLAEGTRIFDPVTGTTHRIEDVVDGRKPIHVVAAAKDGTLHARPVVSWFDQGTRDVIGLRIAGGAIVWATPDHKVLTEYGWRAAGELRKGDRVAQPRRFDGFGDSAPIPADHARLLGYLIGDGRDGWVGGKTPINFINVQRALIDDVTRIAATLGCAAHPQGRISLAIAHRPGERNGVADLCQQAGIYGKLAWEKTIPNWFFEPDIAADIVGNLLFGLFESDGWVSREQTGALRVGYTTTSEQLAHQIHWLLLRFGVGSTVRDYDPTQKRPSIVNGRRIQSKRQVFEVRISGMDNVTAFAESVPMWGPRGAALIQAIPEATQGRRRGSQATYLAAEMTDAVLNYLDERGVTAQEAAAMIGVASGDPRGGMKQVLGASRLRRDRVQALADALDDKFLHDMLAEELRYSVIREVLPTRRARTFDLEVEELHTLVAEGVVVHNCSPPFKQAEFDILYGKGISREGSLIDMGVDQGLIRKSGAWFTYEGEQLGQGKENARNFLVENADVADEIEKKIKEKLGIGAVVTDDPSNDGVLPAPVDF
# [11] = biological target: Induced myeloid leukemia cell differentiation protein Mcl-1 (Homo sapiens, UniProt Q07820); type: functional
# Sequence of Induced myeloid leukemia cell differentiation protein Mcl-1 (Q07820 whole entry): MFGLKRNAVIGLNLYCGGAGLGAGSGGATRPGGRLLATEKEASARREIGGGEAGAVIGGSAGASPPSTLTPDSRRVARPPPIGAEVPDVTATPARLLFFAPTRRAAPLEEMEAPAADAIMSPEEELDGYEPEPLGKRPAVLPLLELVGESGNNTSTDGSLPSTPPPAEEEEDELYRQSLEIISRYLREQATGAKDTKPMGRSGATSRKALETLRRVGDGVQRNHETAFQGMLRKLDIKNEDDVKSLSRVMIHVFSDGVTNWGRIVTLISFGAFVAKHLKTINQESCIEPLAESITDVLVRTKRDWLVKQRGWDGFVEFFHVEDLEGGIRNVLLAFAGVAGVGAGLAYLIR
# INS1 = assay: beta cell apoptosis inhibitors, cytokine rescue, dose response, luminescence, retest (AID 449756); type: functional, cell-based; settings: Rattus norvegicus;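 note: cell death triggered by IL-1 beta plus TNF-alpha plus IFN-gamma mixture; protective hits raise ATP signal compared with cytokine alone wells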
# [12] = Luminescence Cell-Based Dose Retest to Confirm Inhibitors of Cancer Stem Cells. [Related pubchem assays (depositor defined):AID2717, AID2721]; type: functional; settings: Homo sapiens
# [13] = cytotoxicity in HEK-293T cells, dose response, cytotoxicity control for TCR NF-kB inhibitor project, luminescence, T-cell screen hits (AID 489026); type: functional, cell-based;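 note: cells exposed to compound about 14 hours before the viability readout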
# Vero = assay: cells; type: functional; settings: Chlorocebus sabaeus
# [14] = biological target: Dual specificity tyrosine-phosphorylation-regulated kinase 1A (Rattus norvegicus, UniProt Q63470); type: biochemical, Homo sapiens
# [15] = biological target: Photoreceptor-specific nuclear receptor (Homo sapiens, UniProt Q9Y5X4); type: functional, cell-based;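 note: CHO-S cells with Gal4-NCOR and VP16-NR2E3 two-hybrid luciferase reporter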
# [16] = biological target: T1, DNA dC->dU-editing enzyme APOBEC-3G; assay: Dose Response confirmation of small molecule APOBEC3G DNA Deaminase Inhibitors via a fluorescence-based single-stranded DNA deaminase assay. [Related pubchem assays (depositor defined):AID493012, AID493028]; type: functional
# [17] = biological target: Glucose-6-phosphate 1-dehydrogenase (Homo sapiens, UniProt P11413); assay: human G6PD enzyme inhibitors, dose response, selectivity assay for P. falciparum G6PD inhibitor project, biochemical, fluorescence (AID 504792); type: functional
# [18] = A cytotoxicity screen of small molecule inhibitors of the PhoP region in Salmonella typhi identified in the primary screen. [Related pubchem assays: 1850, 1864, 1985 ]; type: functional
# Cytochrome P450 1A2 = biological target: T6, Cytochrome P450 1A2 (Homo sapiens, UniProt P05177);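 note: PubChem cytochrome P450 panel assay, CYP1A2 panel member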
# T6 sequence (P05177 whole entry): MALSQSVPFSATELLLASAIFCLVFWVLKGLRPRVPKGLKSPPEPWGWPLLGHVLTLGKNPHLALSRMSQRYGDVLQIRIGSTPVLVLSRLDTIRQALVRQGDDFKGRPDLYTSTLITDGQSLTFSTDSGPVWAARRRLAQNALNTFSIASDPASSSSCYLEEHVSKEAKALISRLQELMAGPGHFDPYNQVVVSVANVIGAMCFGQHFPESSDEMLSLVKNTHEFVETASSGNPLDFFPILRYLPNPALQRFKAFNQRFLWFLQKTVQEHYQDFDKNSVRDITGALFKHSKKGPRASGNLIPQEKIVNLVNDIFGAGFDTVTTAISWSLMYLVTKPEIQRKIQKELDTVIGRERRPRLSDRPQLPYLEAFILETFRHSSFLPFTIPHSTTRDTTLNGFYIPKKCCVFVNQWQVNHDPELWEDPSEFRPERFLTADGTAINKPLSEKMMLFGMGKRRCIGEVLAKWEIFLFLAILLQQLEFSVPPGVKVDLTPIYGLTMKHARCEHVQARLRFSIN
# Cytochrome P450 3A4 = Cytochrome P450 3A4 (Homo sapiens, UniProt P08684);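 note: CYP3A4 tested as one member of a cytochrome P450 panel screen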
# [19] = biological target: T7, Heat shock factor protein 1 (Mus musculus, UniProt P38532); assay: HSF1 potentiators in luciferase reporter cells, confirmation, cell-based, NIH3T3, luminescence, dose retest (AID 435004); type: functional;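 note: stress induced by proteasome inhibitor MG132 added 30 min after compound; luciferase reporter driven by HSF1 response element in NIH3T3 cells; actives raise luminescence as potentiators of the MG132 stress response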
# T7 sequence (P38532 whole entry): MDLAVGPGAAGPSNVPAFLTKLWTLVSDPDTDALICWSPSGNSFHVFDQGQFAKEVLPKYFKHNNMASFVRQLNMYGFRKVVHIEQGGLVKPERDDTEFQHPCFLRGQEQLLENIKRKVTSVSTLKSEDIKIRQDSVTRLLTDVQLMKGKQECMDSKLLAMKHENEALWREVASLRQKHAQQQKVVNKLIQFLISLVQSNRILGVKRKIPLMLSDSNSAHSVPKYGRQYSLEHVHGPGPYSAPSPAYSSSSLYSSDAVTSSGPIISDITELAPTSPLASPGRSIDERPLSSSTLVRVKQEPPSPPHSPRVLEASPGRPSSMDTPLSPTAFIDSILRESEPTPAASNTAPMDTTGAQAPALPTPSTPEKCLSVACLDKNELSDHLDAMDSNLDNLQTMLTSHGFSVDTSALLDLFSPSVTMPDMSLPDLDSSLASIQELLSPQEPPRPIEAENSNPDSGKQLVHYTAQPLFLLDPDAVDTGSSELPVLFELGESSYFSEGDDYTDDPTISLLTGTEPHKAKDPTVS
# Sequence of Cytochrome P450 2C19 (P33261 whole entry): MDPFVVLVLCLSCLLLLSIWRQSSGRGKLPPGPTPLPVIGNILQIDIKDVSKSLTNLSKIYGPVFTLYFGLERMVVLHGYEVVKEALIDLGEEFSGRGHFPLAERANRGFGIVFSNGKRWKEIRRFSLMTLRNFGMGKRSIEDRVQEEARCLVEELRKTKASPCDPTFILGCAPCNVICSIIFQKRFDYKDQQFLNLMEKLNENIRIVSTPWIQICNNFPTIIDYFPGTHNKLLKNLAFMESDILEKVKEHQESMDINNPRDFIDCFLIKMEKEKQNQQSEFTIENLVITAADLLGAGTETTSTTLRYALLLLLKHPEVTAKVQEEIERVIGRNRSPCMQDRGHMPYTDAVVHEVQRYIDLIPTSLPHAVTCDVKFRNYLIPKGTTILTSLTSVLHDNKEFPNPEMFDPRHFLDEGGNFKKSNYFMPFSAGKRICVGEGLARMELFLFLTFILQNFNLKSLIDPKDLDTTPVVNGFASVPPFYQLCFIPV
smiles,measurement,setting,value
Cc1ccc(C(=O)N/N=C/c2ccc(S(=O)(=O)[O-])o2)c(Cl)c1.[Na+],AC50,Cytochrome P450 2C19,inconclusive
same,AC50,Cytochrome P450 2D6,inconclusive
Cc1cc(Br)ccc1NC(=O)CN(C)C(=O)Cn1c(=O)cnc2ccccc21,IC50,[1],5.76 µM (active)
same,IC50,[2],6.85 µM (active)
same,IC50,[3],7.57 µM (active)
c1ccc(SCCSc2ccccc2)cc1,AC50,[4],28.2 µM (inconclusive)
NC(=O)CC(NC(=O)Cc1ccc(Br)cc1)c1ccc(N2CCN(c3ccccn3)CC2)c([N+](=O)[O-])c1 (centres undefined),EC50,[5],12.2 µM (inactive)
Clc1ccc(CNc2nccc(-c3ccc4c(c3)OCO4)n2)cc1Cl,AC50,[6],< 0.00195 µM (active)
CCc1ccc(S(=O)(=O)/N=C2\C=CC(=O)c3ccccc32)cc1,IC50,SUMO-activating enzyme [7],35.4 µM (active)
same,AC50,[8],1.15 µM (active)
same,CC50,[9],23.7 µM (active)
same,IC50,SUMO-activating enzyme [10],4.93 µM (active)
same,EC50,Protein RecA,0.643 µM (active)
same,IC50,[11],3.11 µM (active)
CC(C)(C)c1cc(C=C(C#N)C#N)cc(C(C)(C)C)c1O [TYRPHOSTIN A9],AC50,[4],15.8 µM (inconclusive)
same,AC50,INS1,0.928 µM (active)
same,AC50,[12],1.3 µM (active)
same,IC50,[13],> 80 µM (inactive)
same,AC50,Cytochrome P450 2C19; read-out: AC50,7.94 µM (inconclusive)
same,CC50,Vero,1.37 µM (active)
c1nc(NCC2CCCC2)c2cc(-c3ccc4c(c3)OCO4)ccc2n1,AC50,[6],0.00361 µM (active)
O=C(CSc1nnnn1-c1ccc(O)cc1)Nc1ccc(N2CCOCC2)c(Cl)c1,AC50,[14],8.12 µM (active)
same,IC50,[15],0.488 µM (active)
same,AC50,[6],8.48 µM (active)
CC(=O)Nc1ccc(S(=O)(=O)NNc2cccc(C)c2)cc1,IC50,[16],35.9 µM (active)
same,IC50,[17],> 80 µM (inactive)
same,EC50,[18],> 50 µM (active)
COc1ccc(C)c2sc(NC(=O)c3cccc(N4C(=O)CCC4=O)c3)nc12,IC50,SUMO-activating enzyme [7],6.1 µM (active)
same,IC50,SUMO-activating enzyme [10],9.99 µM (active)
COc1cc(-c2nnc(SC/C=C/c3ccccc3)n2N)cc(OC)c1OC,AC50,Cytochrome P450 1A2,14.1 µM (inconclusive)
same,AC50,Cytochrome P450 3A4,31.6 µM (inconclusive)
same,EC50,[19],> 260 µM (inconclusive)
same,AC50,Cytochrome P450 2D6,inconclusive
CSc1ccc(C(=O)C2CCCN(Cc3cccn3-c3cccnc3)C2)cc1 (centres undefined),EC50,[5],0.566 µM (active)
